In ChEMBL document CHEMBL1123444, “Analgesic actions of 3-substituted 6-tert-butyl-1,2,3,4,5,6-hexahydro-2,6-methano-3-benzazocines” (1986):
The source made the active and inactive calls. The rule behind the calls is not given here.

Columns and labels:
Mus musculus [1] = organism: Mus musculus; test: Compound was evaluated for analgesic activity using mouse hotplate test; type: functional
Mus musculus [2] = test: Compound was evaluated for analgesic activity using mouse hotplate test at 7.1-13.8 mg/kg dose; type: functional
Mus musculus [3] = test: Compound was evaluated for analgesic activity using mouse hotplate test, at the dose 20 mg/kg; Inactive; type: functional, organism-based; design: dose 20 mg/kg
Mus musculus [4] = test: Compound was evaluated for analgesic activity using mouse hotplate test, at the dose 50 mg/kg; Inactive; type: functional, organism-based; design: dose 50 mg/kg

CN1CC[C@]23c4c5ccc(O)c4O[C@H]2[C@@H](O)C=C[C@H]3[C@H]1C5.CN1CC[C@]23c4c5ccc(O)c4O[C@H]2[C@@H](O)C=C[C@H]3[C@H]1C5.O=S(=O)(O)O
ED50 (Mus musculus [1]): 1.2 mg/kg

CC(C)(C)C12CCN(CCc3ccccc3)C(Cc3ccccc31)C2 (stereo not given)
ED50 (Mus musculus [2]): 9.9 mg/kg

CN1CCC2(C(C)(C)C)CC1Cc1ccccc12 (stereo not given)
ED50 (Mus musculus [1]): 14.1 mg/kg

CC(C)(C)C12CCN(CC3CC3)C(Cc3ccccc31)C2 (stereo not given)
ED50 (Mus musculus [3]): inactive

C=CCN1CCC2(C(C)(C)C)CC1Cc1ccccc12 (stereo not given)
ED50 (Mus musculus [4]): inactive
